Experiments:
[1] = molecular target: Vascular endothelial growth factor receptor 1 (Homo sapiens, UniProt P17948); assay: Inhibition of Flt1
[2] = molecular target: Tyrosine-protein kinase SYK (Homo sapiens, UniProt P43405); assay: Inhibition of SYK
[3] = molecular target: Vascular endothelial growth factor receptor 2 (Homo sapiens, UniProt P35968); assay: Inhibition of KDR
[4] = molecular target: Tyrosine-protein kinase ABL1 (Homo sapiens, UniProt P00519); assay: Inhibition of ABL
[5] = molecular target: T1, Epidermal growth factor receptor (Homo sapiens, UniProt P00533); assay: Inhibition of human recombinant EGFR by fluorescence polarization assay
[6] = molecular target: Proto-oncogene tyrosine-protein kinase Src (Homo sapiens, UniProt P12931); assay: Inhibition of SRC
Chain of Proto-oncogene tyrosine-protein kinase Src (P12931 2-536 limits assumed): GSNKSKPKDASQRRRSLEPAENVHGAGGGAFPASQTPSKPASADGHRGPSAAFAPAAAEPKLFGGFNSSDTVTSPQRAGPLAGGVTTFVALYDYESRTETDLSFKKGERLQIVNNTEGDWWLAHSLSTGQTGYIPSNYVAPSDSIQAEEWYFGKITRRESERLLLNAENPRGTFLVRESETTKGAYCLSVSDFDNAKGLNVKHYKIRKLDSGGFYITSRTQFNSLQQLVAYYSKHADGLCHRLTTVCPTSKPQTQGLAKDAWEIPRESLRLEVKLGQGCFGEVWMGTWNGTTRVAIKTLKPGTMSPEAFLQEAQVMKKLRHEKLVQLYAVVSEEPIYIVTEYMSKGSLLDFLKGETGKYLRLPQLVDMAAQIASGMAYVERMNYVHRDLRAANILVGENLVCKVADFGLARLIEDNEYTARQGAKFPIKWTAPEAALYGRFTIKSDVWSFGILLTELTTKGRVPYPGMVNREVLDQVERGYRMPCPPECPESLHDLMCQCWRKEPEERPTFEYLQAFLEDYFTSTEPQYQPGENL

[7] = molecular target: T1, Epidermal growth factor receptor; assay: Inhibition of human EGFR autophosphorylation in A431 cells

Chain of Vascular endothelial growth factor receptor 1 (P17948 whole entry): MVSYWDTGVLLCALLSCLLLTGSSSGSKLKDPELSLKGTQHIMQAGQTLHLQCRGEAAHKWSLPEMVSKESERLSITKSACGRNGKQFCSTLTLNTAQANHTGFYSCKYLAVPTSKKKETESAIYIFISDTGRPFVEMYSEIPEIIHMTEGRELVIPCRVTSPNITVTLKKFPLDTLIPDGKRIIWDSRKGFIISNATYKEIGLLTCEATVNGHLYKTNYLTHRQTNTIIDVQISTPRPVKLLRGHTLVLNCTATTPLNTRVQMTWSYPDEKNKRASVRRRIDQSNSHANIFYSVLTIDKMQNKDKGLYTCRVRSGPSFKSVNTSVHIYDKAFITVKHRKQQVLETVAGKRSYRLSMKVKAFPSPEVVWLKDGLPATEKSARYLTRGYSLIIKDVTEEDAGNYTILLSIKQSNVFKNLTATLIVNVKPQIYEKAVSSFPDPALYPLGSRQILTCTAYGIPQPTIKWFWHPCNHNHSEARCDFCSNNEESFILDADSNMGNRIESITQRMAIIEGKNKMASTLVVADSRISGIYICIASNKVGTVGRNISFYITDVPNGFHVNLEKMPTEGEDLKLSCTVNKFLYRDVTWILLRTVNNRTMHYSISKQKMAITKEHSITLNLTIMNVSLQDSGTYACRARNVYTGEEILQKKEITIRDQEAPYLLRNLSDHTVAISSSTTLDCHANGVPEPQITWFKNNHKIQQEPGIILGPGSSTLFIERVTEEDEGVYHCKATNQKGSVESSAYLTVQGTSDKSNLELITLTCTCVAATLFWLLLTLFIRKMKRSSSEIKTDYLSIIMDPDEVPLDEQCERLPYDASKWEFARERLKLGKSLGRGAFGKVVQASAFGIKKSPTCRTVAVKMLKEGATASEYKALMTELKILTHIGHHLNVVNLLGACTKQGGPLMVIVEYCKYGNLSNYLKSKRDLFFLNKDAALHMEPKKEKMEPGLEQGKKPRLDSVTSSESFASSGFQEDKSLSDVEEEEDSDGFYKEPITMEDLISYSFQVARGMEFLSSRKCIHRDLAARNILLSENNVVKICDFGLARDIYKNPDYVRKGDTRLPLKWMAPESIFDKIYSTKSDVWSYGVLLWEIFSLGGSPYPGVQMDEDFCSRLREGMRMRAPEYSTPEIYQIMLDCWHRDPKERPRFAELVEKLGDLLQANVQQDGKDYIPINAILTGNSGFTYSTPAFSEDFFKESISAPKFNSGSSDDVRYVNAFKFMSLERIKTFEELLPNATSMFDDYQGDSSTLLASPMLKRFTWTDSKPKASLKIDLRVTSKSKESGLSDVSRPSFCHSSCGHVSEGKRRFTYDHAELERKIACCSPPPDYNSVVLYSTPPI
Chain of Tyrosine-protein kinase ABL1 (P00519 whole entry): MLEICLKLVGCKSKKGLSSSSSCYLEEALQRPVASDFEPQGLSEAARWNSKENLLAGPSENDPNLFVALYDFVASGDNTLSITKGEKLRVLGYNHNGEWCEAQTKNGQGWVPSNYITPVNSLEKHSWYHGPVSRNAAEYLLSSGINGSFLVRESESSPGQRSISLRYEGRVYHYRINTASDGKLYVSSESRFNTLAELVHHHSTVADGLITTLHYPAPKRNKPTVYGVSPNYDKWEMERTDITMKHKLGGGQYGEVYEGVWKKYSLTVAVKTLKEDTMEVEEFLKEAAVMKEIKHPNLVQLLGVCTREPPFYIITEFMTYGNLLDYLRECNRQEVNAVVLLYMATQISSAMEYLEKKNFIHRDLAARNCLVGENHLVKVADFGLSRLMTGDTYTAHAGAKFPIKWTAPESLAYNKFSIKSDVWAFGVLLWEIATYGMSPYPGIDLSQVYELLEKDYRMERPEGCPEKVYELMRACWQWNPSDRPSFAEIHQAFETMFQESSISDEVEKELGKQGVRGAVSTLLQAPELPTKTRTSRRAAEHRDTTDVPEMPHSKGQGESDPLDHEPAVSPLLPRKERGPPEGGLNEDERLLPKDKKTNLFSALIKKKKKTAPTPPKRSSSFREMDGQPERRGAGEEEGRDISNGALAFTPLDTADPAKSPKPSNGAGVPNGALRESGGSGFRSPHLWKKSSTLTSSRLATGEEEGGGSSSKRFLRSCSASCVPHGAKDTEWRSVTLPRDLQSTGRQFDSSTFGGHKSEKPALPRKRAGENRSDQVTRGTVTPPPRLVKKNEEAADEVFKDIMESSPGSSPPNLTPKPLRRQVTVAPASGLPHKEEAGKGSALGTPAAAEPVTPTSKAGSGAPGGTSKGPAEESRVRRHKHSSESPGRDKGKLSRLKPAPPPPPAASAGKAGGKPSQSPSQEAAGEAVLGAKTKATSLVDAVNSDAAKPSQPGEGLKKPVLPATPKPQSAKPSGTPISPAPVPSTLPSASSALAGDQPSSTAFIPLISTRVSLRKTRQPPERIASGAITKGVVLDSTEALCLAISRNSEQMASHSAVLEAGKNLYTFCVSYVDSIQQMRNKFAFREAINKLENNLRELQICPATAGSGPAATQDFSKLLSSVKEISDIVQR
Chain of Vascular endothelial growth factor receptor 2 (P35968 whole entry): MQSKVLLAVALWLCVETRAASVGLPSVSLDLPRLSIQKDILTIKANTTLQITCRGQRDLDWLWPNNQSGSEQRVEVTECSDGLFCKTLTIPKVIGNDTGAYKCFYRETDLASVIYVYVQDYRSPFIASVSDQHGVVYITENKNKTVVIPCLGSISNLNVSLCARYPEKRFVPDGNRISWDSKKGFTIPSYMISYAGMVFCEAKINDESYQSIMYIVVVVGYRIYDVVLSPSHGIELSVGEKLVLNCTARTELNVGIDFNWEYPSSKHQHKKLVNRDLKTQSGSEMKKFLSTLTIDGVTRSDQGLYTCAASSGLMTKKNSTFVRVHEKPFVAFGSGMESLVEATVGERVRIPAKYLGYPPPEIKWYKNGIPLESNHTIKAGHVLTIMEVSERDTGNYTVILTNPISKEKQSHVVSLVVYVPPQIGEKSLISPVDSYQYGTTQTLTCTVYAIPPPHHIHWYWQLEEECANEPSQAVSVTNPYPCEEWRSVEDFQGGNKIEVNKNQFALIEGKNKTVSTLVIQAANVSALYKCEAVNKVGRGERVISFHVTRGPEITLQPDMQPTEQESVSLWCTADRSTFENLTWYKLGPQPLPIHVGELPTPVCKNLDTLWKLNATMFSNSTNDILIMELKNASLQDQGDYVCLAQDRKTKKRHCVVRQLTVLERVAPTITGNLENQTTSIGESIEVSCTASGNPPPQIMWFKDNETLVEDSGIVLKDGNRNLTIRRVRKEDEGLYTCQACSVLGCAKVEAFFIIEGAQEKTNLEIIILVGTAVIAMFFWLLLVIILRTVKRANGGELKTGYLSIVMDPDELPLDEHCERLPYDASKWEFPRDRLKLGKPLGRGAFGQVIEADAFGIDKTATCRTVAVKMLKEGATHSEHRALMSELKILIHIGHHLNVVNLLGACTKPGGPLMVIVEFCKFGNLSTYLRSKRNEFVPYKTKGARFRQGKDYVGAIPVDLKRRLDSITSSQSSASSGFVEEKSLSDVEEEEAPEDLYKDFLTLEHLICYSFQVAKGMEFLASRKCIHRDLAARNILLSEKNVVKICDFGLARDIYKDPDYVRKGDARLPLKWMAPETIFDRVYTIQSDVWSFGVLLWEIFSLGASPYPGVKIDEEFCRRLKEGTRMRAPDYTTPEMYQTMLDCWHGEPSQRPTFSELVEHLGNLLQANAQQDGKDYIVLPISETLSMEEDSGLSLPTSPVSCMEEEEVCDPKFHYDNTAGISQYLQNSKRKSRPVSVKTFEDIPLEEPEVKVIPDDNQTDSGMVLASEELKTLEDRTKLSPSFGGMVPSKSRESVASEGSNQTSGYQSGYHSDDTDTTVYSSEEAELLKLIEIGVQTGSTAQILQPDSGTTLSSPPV

| Ki [1] [nM] | Ki [2] [nM] | Ki [3] [nM] | Ki [4] [nM] | Ki [5] [nM] | Ki [6] [nM] | IC50 [7] [nM] | Compound |
| --- | --- | --- | --- | --- | --- | --- | --- |
| 1500 | > 10000 | > 10000 | > 10000 | 360 | > 10000 | 360 | COc1cc2c(N[C@@H]3C[C@H]3c3ccccc3)c(C#N)cnc2cc1OC1CCN(C)CC1 |
| > 10000 | > 10000 | > 10000 | > 10000 | 340 | 280 | 5260 | N#Cc1cnc2ccc(-c3cccc(CN4CCOCC4)c3)cc2c1N[C@@H]1C[C@H]1c1ccccc1 |
| – | – | – | – | 80 | – | – | COc1cc2ncc(C#N)c(N[C@@H]3C[C@H]3c3ccc(Oc4ccccc4)cc3)c2cc1OC |
| – | – | – | – | 36 | – | – | COc1cc2ncc(C#N)c(N[C@@H]3C[C@H]3c3ccccc3F)c2cc1OC |
| > 10000 | > 10000 | > 10000 | > 10000 | 400 | 570 | 2530 | N#Cc1cnc2ccc(-c3ccc(CN4CCOCC4)cc3)cc2c1N[C@@H]1C[C@H]1c1ccccc1 |
| – | – | – | – | 44 | – | – | COc1cc2ncc(C#N)c(N[C@@H]3C[C@H]3c3ccc(Cl)cc3)c2cc1OC |
| 1600 | 250 | 2100 | 950 | 24 | 150 | 90 | COc1cc2ncc(C#N)c(N[C@@H]3C[C@H]3c3ccccc3)c2cc1OC |
| > 10000 | > 10000 | > 10000 | > 10000 | 180 | 170 | 2580 | COc1ccc2c(N[C@@H]3C[C@H]3c3ccccc3)c(C#N)cnc2c1 |
| > 10000 | > 10000 | 2600 | > 10000 | 120 | 330 | 1610 | COc1cc2ncc(C#N)c(N[C@@H]3C[C@H]3c3ccccc3)c2cc1OCc1ccccc1 |
| 910 | > 10000 | 560 | 1800 | 52 | > 10000 | – | COc1cc2ncc(C#N)c(N[C@@H]3C[C@H]3c3ccccc3)c2cc1OCCCN1CCOCC1 |
| 1710 | > 10000 | 650 | 1800 | 68 | > 10000 | 68 | COc1cc2ncc(C#N)c(N[C@@H]3C[C@H]3c3ccccc3)c2cc1OCCCc1cccnc1 |
| 1900 | 140 | 99 | 300 | 220 | 49 | 173 | COc1cc2c(N[C@@H]3C[C@H]3c3ccccc3)c(C#N)cnc2cc1OCCCc1cccnc1 |
| – | – | – | – | 52 | – | – | COc1cc2ncc(C#N)c(N[C@@H]3C[C@H]3c3cccc(Br)c3)c2cc1OC |
| 920 | – | 170 | – | 80 | 140 | 234 | N#Cc1cnc2cc(-c3ccc(CN4CCOCC4)cc3)ccc2c1N[C@@H]1C[C@H]1c1ccccc1 |
| – | – | – | – | 220 | – | – | COc1cc2ncc(C#N)c(N[C@@H]3C[C@H]3c3ccc(Br)cc3)c2cc1OC |
| > 10000 | > 10000 | 150 | > 10000 | 64 | > 10000 | 405 | COc1cc2ncc(C#N)c(N[C@@H]3C[C@H]3c3ccccc3)c2cc1OCCN1CCOCC1 |
| > 10000 | > 10000 | > 10000 | > 10000 | 360 | 210 | 8270 | COc1ccc2ncc(C#N)c(N[C@@H]3C[C@H]3c3ccccc3)c2c1 |

| Compound | Ki [1] [nM] | Ki [2] [nM] | Ki [3] [nM] | Ki [4] [nM] | Ki [5] [nM] | Ki [6] [nM] | IC50 [7] [nM] |
| --- | --- | --- | --- | --- | --- | --- | --- |
| N#Cc1cnc2ccc(-c3ccc(CN)cc3)cc2c1N[C@@H]1C[C@H]1c1ccccc1 | 1400 | 450 | 1500 | 770 | 40 | 86 | 2100 |
| COc1cc2c(N[C@@H]3C[C@H]3c3ccccc3)c(C#N)cnc2cc1OCCCN1CCOCC1 | 350 | > 10000 | 420 | 200 | – | 45 | – |
| COc1cc2c(N[C@@H]3C[C@H]3c3ccccc3)c(C#N)cnc2cc1OCCCN1CCN(C)CC1 | 110 | 41 | 300 | 44 | 3 | 27 | 5.7 |
| COCCOc1cc2ncc(C#N)c(N[C@@H]3C[C@H]3c3ccccc3)c2cc1OC | 2900 | 160 | 140 | 390 | 60 | 110 | 52.8 |

Source: ChEMBL document CHEMBL1140464, “Synthesis and structure-activity relationship of 4-(2-aryl-cyclopropylamino)-quinoline-3-carbonitriles as EGFR tyrosine kinase inhibitors” (Bioorg Med Chem Lett, 2007)
